Assay: xn = mol fraction of the nth substance listed
Details: 101.3 kPa

CC[n+]1ccn(C)c1C.O=S(=O)([N-]S(=O)(=O)C(F)(F)F)C(F)(F)F + CC1COC(=O)O1
viscosity [mPa·s]
Details	x1 = 0.1025	x1 = 0.203	x1 = 0.3078	x1 = 0.3994	x1 = 0.5149	x1 = 0.5825	x1 = 0.7004	x1 = 0.8032	x1 = 0.8903	x1 = 1
293.15 K	4.428	6.93	10.56	14.82	23.06	28.58	40.63	54.1	67.4	88.1
298.15 K	3.939	6.07	9.11	12.62	19.36	23.79	33.34	43.9	54.2	69.8
303.15 K	3.529	–	7.94	10.86	16.94	–	27.76	36.2	44.35	56.4
308.15 K	3.181	4.77	6.98	9.45	14.61	17.55	23.4	30.24	36.77	46.1
313.15 K	2.886	4.278	6.18	8.29	12.57	15.29	–	25.57	30.87	38.26
318.15 K	2.631	3.864	5.52	–	–	13.22	17.6	–	26.2	32.15
323.15 K	–	3.506	4.96	6.54	–	11.45	–	18.92	22.48	27.31
328.15 K	2.218	–	4.485	5.86	8.27	9.99	13.53	–	19.46	23.43
333.15 K	2.05	2.932	4.078	–	7.31	8.77	11.81	14.88	17.38	20.28
338.15 K	1.901	2.699	–	4.8	6.49	7.77	10.37	13.07	15.46	17.69
343.15 K	1.769	2.494	3.419	–	5.82	–	9.15	11.54	–	15.62
348.15 K	–	2.312	3.149	4.011	5.23	6.15	–	10.17	12.07	13.94

Source: a compilation of properties of binary mixtures (doi:10.1016/j.molliq.2020.114573)
